pIC50: −log10 of the molar value.
Tests used:
BCL-2/BAK = biological target: T1, BCL-2/BAK (Homo sapiens, UniProt P10415); assay: Screening on inhibitory activity for BCL-2/BAK binding (Cisbio HTRF kit)
T1 construct: purchased Cisbio
How it was run: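 HTRF competition assay: Tag1-BCL-2 and Tag2-BAK working dilutions were 5 nM and 120 nM. Compound (200–0.0488 nM final, 4-fold, 7 points, duplicates) was incubated with the proteins for 15 min at 25 °C, then with Eu-cryptate/XL665 antibodies for ≥2 h at 25 °C. IC50 was derived from a four-parameter fit.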

BCL-XL/BAK = biological target: T2, BCL-XL/BAK (Homo sapiens, UniProt Q07817); assay: Screening on inhibitory activity for BCL-XL/BAK binding (Cisbio HTRF kit)
T2 construct: purchased Cisbio
How it was run: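 Tag1-BCL-XL and Tag2-BAK (2 nM and 80 nM before mixing) were combined with compounds at final 2000–0.488 nM (4-fold, 7 points, duplicates) for 15 min at 25° C. Eu3+ anti-Tag1 and XL665 anti-Tag2 were then added for ≥2 h at 25° C. HTRF (620/665 nm) gave IC50 by four-parameter fit.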

RS4;11 cells = assay: Inhibitory effect on proliferation of RS4;11 cells (CCK-8); type: cell-based, human
How it was run: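 RS4;11 cells were seeded at 1×10^5 cells/mL in RPMI with 5% FBS and incubated 24 h at 37° C, 5% CO2 before compound addition in duplicate. Inhibition was calculated against untreated and blank controls. IC50 came from a four-parameter fit of log concentration versus inhibition.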

[1] = test system: human platelet Caspase-3 activity; assay: Human platelet toxicity experiment (Caspase-3 activity assay); type: cell-based; conditions: 90 min, data normalized, reference ABT-199
Procedure: Experimental Example 6: Human Platelet Toxicity Experiment (Caspase-3 Activity Assay)
10 mL of human whole blood was collected using a heparin sodium anticoagulation tube, mixed well by turning upside down, and centrifuged at 90 g for 10 min. The supernatant was collected and centrifuged at 1950 g for 10 min. The supernatant was discarded, and the residue was resuspended in 4 mL of PBS, and centrifuged at 1190 g for 5 min, and the procedure was repeated once. The supernatant was discarded, and the platelets were resuspended in PBS and adjusted to the density of 2-3×10^8 cells/mL. Cells were seeded into a 96-well plate at a density of 2-3×10^7 cells/mL and at 100 μL/well. 50 μL of control buffer was added to each negative control well, and 50 μL of compound at a corresponding concentration was added to each compound well, so that the final concentration of the compound was 2.5 μM, 2 μM, 1 μM or 0.5 μM, followed by incubation in an incubator at 37° C. for 90 min. The liquids in the 96-well plate were transferred to 1.5 mL centrifuge tubes, respectively. The tubes were centrifuged at 4° C. and 6000 g for 5 min, and placed on ice for later use after the supernatant was discarded. 5× lysis buffer was diluted into 1× lysis buffer with water in the kit, and protease inhibitor cocktail was added at a 1:200 ratio to prepare a lysis mixture for later use. 40 μL of lysis mixture was added to each centrifuge tube, and the platelets at the bottom were resuspended using a pipette. The suspension was lysed on ice for 15-20 min and centrifuged at 4° C. and 14,000 g for 10 min. The sample was sub-packaged for later use. 10× assay buffer was diluted into 1× assay buffer with water in the kit, and substrate Ac-DEVD-AMC was added at a 1:600 ratio to prepare a reaction mixture. 5 μL of assay buffer and 40 μL of reaction mixture were added to each blank control well. 5 μL of control platelet lysate and 40 μL of reaction mixture were added to each negative control well. 5 μL of platelet lysate and 40 μL of reaction mixture were added to each compound well. In this procedure, 40 μL of reaction mixture was added at last. The resulting mixture was mixed gently, and the plate was read by a PE Envision multi-functional microplate reader (excitation: 360 nm, emission: 460 nm) once every 10 min for 6 times. Caspase-3 activity was determined based on the intensity of the released AMC fluorescence, that is the slope of the fitted line to which each well corresponds represents Caspase activity (all data were normalized and the reference was ABT-199).

[2] = In vitro stability in mouse liver microsomes; type: in vitro ADME; conditions: 1 μM
Procedure: (§1) Experimental Example 3: In Vitro Stability in Liver Microsome
(§2) 300 μL of the final incubation system contains 30 μL of liver microsomes (protein concentration: 5 mg/mL), 30 μL of NADPH+MgCl2, 3 μL of the test compound (in acetonitrile), and 237 μL of PBS buffer (pH 7.4), wherein the proportion of the organic solvent (acetonitrile) is 1% (volume ratio). Two duplicate samples were prepared for each specie (mouse, rat and human), and each sample was 0.3 mL. Each tube which was added with 270 μL of a mixed solution of substrate and enzyme, and NADPH, after being pre-incubated at 37° C. for 5 min, was added with 30 μL of NADPH+MgCl2 and mixed. Then 50 μL of the mixture was taken at 0 min, 15 min, 30 min and 60 min, and added with 300 μL of glacial acetonitrile containing an internal standard to terminate the reaction.
(§3) 50 μL of the incubated sample was added with 300 μL of glacial acetonitrile containing an internal standard (20 ng/mL diazepam) for precipitation, vortexed for 5 min, and centrifuged (13,000 rpm, 20° C.) for 10 min. 70 μL of supernatant was taken and diluted with 70 μL of ultrapure water. After being mixed well, 1 μL of the resulting sample was injected for analysis.

[3] = In vitro stability in rat liver microsomes; type: in vitro ADME; conditions: 1 μM
Procedure: as §1, §2, §3

[4] = In vitro stability in human liver microsomes; type: in vitro ADME; conditions: 1 μM
Procedure: as §1, §2, §3

T2 sequence (Q07817 whole entry, species assumed): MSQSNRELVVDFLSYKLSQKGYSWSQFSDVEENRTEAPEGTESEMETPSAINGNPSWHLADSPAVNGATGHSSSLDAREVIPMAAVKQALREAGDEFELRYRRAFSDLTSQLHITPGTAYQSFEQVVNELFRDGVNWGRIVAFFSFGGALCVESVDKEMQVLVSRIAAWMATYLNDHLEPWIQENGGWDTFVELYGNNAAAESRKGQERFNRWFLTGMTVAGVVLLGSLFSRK
T1 sequence (P10415 whole entry, species assumed): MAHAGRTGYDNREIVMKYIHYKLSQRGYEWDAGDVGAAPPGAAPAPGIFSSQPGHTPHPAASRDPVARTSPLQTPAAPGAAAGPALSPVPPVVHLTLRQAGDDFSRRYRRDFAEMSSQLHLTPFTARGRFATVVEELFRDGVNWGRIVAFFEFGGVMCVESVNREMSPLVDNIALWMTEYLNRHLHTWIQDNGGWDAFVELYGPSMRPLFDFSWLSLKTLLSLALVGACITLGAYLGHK

pIC50 (BCL-2/BAK) | pIC50 (BCL-XL/BAK) | pIC50 (RS4;11 cells; Homo sapiens, RS4-11, 72 h) | Mouse Residual content after 60 min (%) [2] | Rat Residual content after 60 min (%) [3] | Human Residual content after 60 min (%) [4] | Compound | pIC50 (RS4;11 cells; 72 h) | human platelet Caspase-3 activity, Slope ([1]; compound concentration 1 μM) | human platelet Caspase-3 activity, Slope ([1]; compound concentration 0.5 μM) | human platelet Caspase-3 activity, Slope ([1]; compound concentration 2 μM)
8.74 | – | 8.57 | 55.7% | 101.7% | 69.8% | CC(=O)N1CCOC(CNc2ccc(S(=O)(=O)NC(=O)c3ccc(N4CCN(CC5=C(c6ccc(C(F)(F)F)cc6Cl)CC(C)(C)CC5)CC4)cc3Oc3cnc4[nH]ccc4c3)cc2[N+](=O)[O-])C1 (stereo not drawn) [Compound 9-1, 4-(4-{[2-(2-chloro-4-trifluoromethylphenyl)-4,4-dimethylcyclohex-1-enyl]methyl}-piperazin-1-yl)-N-({3-nitro-4-[((4-acetylmorpholin-2-yl)methyl)amino]phenyl}sulfonyl)-2-(1H-pyrrolo[2,3-b]pyridin-5-yloxy)-benzamide] | – | – | – | –
8.55 | 6.71 | 8.25 | 30.1% | 69.9% | 78.0% | CC(C)C(=O)N1CCOC(CNc2ccc(S(=O)(=O)NC(=O)c3ccc(N4CCN(CC5=C(c6ccc(C(F)(F)F)cc6Cl)CC(C)(C)CC5)CC4)cc3Oc3cnc4[nH]ccc4c3)cc2[N+](=O)[O-])C1 (stereo not drawn) [Compound 10-1, 4-(4-{[2-(2-chloro-4-trifluoromethylphenyl)-4,4-dimethylcyclohex-1-enyl]methyl}-piperazin-1-yl)-N-({3-nitro-4-[((4-isobutyrylmorpholin-2-yl)methyl)amino]phenyl}sulfonyl)-2-(1H-pyrrolo[2,3-b]pyridin-5-yloxy)-benzamide] | – | – | – | –
8.57 | – | 8.37 | – | – | – | CN1CCC(CCNc2ccc(S(=O)(=O)NC(=O)c3ccc(N4CCN(CC5=C(c6ccc(C(F)(F)F)cc6Cl)CC(C)(C)CC5)CC4)cc3Oc3cnc4[nH]ccc4c3)cc2[N+](=O)[O-])CC1 [Compound 18-1, 4-(4-{[2-(2-chloro-4-trifluoromethylphenyl)-4,4-dimethylcyclohex-1-enyl]methyl}-piperazin-1-yl)-N-({3-nitro-4-[(2-(1-methylpiperidin-4-yl)ethyl)amino]phenyl}sulfonyl)-2-(1H-pyrrolo[2,3-b]pyridin-5-yloxy)-benzamide] | – | 0.31 | – | –
8.74 | 6.92 | 8.72 | – | – | – | CC1(C)CCC(CN2CCN(c3ccc(C(=O)NS(=O)(=O)c4ccc(NC[C@@H]5CCCOC5)c([N+](=O)[O-])c4)c(Oc4cnc5[nH]ccc5c4)c3)CC2)=C(c2ccc(C(F)(F)F)cc2Cl)C1 [Compound 43-1, (S)-4-(4-{[2-(2-chloro-4-trifluoromethylphenyl)-4,4-dimethylcyclohex-1-enyl]methyl}-piperazin-1-yl)-N-({3-nitro-4-[((tetrahydropyran-3-yl)methyl)amino]phenyl}sulfonyl)-2-(1H-pyrrolo[2,3-b]pyridin-5-yloxy)-benzamide] | – | – | 0.19 | 0.09
8.47 | 6.57 | 8.64 | – | – | – | CCS(=O)(=O)N1CCOC(CNc2ccc(S(=O)(=O)NC(=O)c3ccc(N4CCN(CC5=C(c6ccc(C(F)(F)F)cc6Cl)CC(C)(C)CC5)CC4)cc3Oc3cnc4[nH]ccc4c3)cc2[N+](=O)[O-])C1 (stereo not drawn) [Compound 57-1, 4-(4-{[2-(2-chloro-4-trifluoromethylphenyl)-4,4-dimethylcyclohex-1-enyl]methyl}-piperazin-1-yl)-N-({3-nitro-4-[((4-(ethylsulfonyl)morpholin-2-yl)methyl)amino]phenyl}sulfonyl)-2-(1H-pyrrolo[2,3-b]pyridin-5-yloxy)-benzamide] | – | – | 0.08 | 0.04
8.82 | 6.87 | 8.74 | – | – | – | CC(=O)N1CCO[C@H](CNc2ccc(S(=O)(=O)NC(=O)c3ccc(N4CCN(CC5=C(c6ccc(C(F)(F)F)cc6Cl)CC(C)(C)CC5)CC4)cc3Oc3cnc4[nH]ccc4c3)cc2[N+](=O)[O-])C1 [Compound 65-1, (R)-4-(4-{[2-(2-chloro-4-trifluoromethylphenyl)-4,4-dimethylcyclohex-1-enyl]methyl}-piperazin-1-yl)-N-({3-nitro-4-[((4-acetylmorpholin-2-yl)methyl)amino]phenyl}sulfonyl)-2-(1H-pyrrolo[2,3-b]pyridin-5-yloxy)-benzamide] | – | – | 0.44 | 0.43

The remaining lines, values behind:

Compound | pIC50 (BCL-2/BAK) | pIC50 (BCL-XL/BAK) | pIC50 (RS4;11 cells; Homo sapiens, RS4-11, 72 h) | Mouse Residual content after 60 min (%) [2] | Rat Residual content after 60 min (%) [3] | Human Residual content after 60 min (%) [4] | pIC50 (RS4;11 cells; 72 h) | human platelet Caspase-3 activity, Slope ([1]; compound concentration 1 μM) | human platelet Caspase-3 activity, Slope ([1]; compound concentration 0.5 μM) | human platelet Caspase-3 activity, Slope ([1]; compound concentration 2 μM)
CC1(C)CCC(CN2CCN(c3ccc(C(=O)NS(=O)(=O)c4ccc(NC[C@@H]5COCCO5)c([N+](=O)[O-])c4)c(Oc4cnc5[nH]ccc5c4)c3)CC2)=C(c2ccc(C(F)(F)F)cc2Cl)C1 [Compound 7-1] | 8.46 | 6.54 | – | – | – | – | 8.34 | 0.48 | – | –
CN1CCC(CCCNc2ccc(S(=O)(=O)NC(=O)c3ccc(N4CCN(CC5=C(c6ccc(C(F)(F)F)cc6Cl)CC(C)(C)CC5)CC4)cc3Oc3cnc4[nH]ccc4c3)cc2[N+](=O)[O-])CC1 [Compound 17-1, 4-(4-{[2-(2-chloro-4-trifluoromethylphenyl)-4,4-dimethylcyclohex-1-enyl]methyl}-piperazin-1-yl)-N-({3-nitro-4-[(3-(1-methylpiperidin-4-yl)propyl)amino]phenyl}sulfonyl)-2-(1H-pyrrolo[2,3-b]pyridin-5-yloxy)-benzamide] | 8.70 | – | 8.54 | – | – | – | – | 0.48 | – | –
CCN1CCC(CCNc2ccc(S(=O)(=O)NC(=O)c3ccc(N4CCN(CC5=C(c6ccc(C(F)(F)F)cc6Cl)CC(C)(C)CC5)CC4)cc3Oc3cnc4[nH]ccc4c3)cc2[N+](=O)[O-])CC1 [Compound 19-1, 4-(4-{[2-(2-chloro-4-trifluoromethylphenyl)-4,4-dimethylcyclohex-1-enyl]methyl}-piperazin-1-yl)-N-({3-nitro-4-[(2-(1-ethylpiperidin-4-yl)ethyl)amino]phenyl}sulfonyl)-2-(1H-pyrrolo[2,3-b]pyridin-5-yloxy)-benzamide] | 8.60 | – | 8.46 | – | – | – | – | 0.12 | – | –
CC1(C)CCC(CN2CCN(c3ccc(C(=O)NS(=O)(=O)c4ccc(NCCC5CCN(CCF)CC5)c([N+](=O)[O-])c4)c(Oc4cnc5[nH]ccc5c4)c3)CC2)=C(c2ccc(C(F)(F)F)cc2Cl)C1 [Compound 20-1, 4-(4-{[2-(2-chloro-4-trifluoromethylphenyl)-4,4-dimethylcyclohex-1-enyl]methyl}-piperazin-1-yl)-N-({3-nitro-4-[(2-(1-(2-fluoroethyl)piperidin-4-yl)ethyl)amino]phenyl}sulfonyl)-2-(1H-pyrrolo[2,3-b]pyridin-5-yloxy)-benzamide] | 8.68 | – | 8.41 | – | – | – | – | 0.37 | – | –
